Legend:
P2Y12 [1] = target: T1, P2Y12 (Homo sapiens, UniProt Q9H244); assay: GTP shift experiments (radioligand binding in presence and absence of GTP); parameters: Membranes were prepared from human outdated platelets from the blood bank; from tissue; host or cells: human platelets (University of Bonn blood bank), membrane preparation; details: presence and absence of GTP (100 μM); no shift = antagonist rather than agonist
Method: (§1) Radioligand binding assays were performed using 5 nM [^3H]PSB-0413 and 100 μg of protein in Tris-HCl buffer 50 mM, pH 7.4, as previously described. (El-Tayeb, A., Griessmeier, K. J, Müller, C. E. Bioorg. Med. Chem. Lett. 2005, 15, 5450-52; Atzler, K. Doctoral Thesis, University of Bonn, 2006). Competition by 10 μM of test compound was initially determined. The mixture was incubated for 1 h at rt followed by filtration through GF/B filters. Nonspecific binding was determined with 1 mM ADP or 250 μM RB 2. […] At least three independent experiments were performed each in triplicate.
Selected compounds were investigated for their functionality in GTP shift experiments. Radioligand binding studies as described above were performed in the presence and absence of GTP (100 μM).
Target sequence in this assay (Q9H244 whole entry): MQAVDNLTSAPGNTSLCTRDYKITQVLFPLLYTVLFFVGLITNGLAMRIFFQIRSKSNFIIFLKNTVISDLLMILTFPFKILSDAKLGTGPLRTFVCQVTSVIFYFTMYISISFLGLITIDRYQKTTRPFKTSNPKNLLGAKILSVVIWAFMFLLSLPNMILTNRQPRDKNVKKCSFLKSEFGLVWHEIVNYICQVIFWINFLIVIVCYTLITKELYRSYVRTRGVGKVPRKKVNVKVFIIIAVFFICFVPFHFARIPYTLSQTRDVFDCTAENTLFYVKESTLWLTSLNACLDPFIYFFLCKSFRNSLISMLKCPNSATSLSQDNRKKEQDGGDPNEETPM

[2] = target: T2, human platelet P2Y12 receptors (Homo sapiens, UniProt Q9H244); assay: Radioligand binding assay with [3H]PSB-0413 at human platelet membranes; details: human platelet membranes, 5 nM [3H]PSB-0413, 1 h at rt; mean ± SEM; read-out: hP2Y12 Receptor Ki [μM ± SEM] vs. [3H]PSB-0413
T2 construct: Membranes were prepared from human outdated platelets from the blood bank; from tissue; host or cells: human platelets (University of Bonn blood bank), membrane preparation
T2 sequence (Q9H244 whole entry): as above
Method: Membranes were prepared from human outdated platelets from the blood bank. Outdated human platelets were obtained from the University of Bonn blood bank 4-5 days after donation. Platelet rich plasma was washed by centrifugation (10 min at 1000 g) in a buffer consisting of 50 mM Tris-HCl, pH 7.4, 5 mM EDTA and 150 mM NaCl. The supernatant was centrifuged twice (48400 g for 60 min) and the resultant platelet pellet were resuspended in 5 mM Tris-HCl (pH 7.4) containing 5 mM EDTA. The platelets were homogenized by a homogenizer. The final suspension was stored frozen as multiple aliquots at −80° C. until needed. Protein concentrations were determined by the method of Lowry using a Sigma Chemie protein assay kit.
as §1
(§2) The data were analyzed using GraphPad Prism 4.0 (GraphPad Software, Inc., San Diego, Calif.).

rP2Y6 Receptor = rP2Y6 Receptor (Rattus norvegicus, UniProt Q63371); assay: Inhibition of agonist-induced calcium mobilization, recombinant receptor in human astrocytoma cells; format: cell-based; details: mean ± SEM
Sequence of rP2Y6 Receptor (Q63371 whole entry): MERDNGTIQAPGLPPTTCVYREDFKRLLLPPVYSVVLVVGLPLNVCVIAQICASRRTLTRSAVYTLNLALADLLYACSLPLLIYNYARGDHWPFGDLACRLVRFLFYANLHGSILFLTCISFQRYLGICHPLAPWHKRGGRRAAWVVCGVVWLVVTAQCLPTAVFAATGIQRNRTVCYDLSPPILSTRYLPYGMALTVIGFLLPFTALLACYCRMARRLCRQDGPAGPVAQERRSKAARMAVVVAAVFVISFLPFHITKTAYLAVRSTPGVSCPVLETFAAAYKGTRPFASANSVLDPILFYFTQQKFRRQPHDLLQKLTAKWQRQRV
Method: (§3) Inhibition of agonist-induced calcium mobilization was determined as previously described (Kaulich M. et al, Drug Dev. Res. 2003, 59, 72-81) using NG108-15 cells for the mouse P2Y2 receptor, or human recombinant P2Y receptors stably expressed in human astrocytoma cells (El-Tayeb, A. et al., J. Med. Chem. 2006, 49, 7076-87).
as §2

hP2Y4 Receptor = hP2Y4 Receptor (Homo sapiens, UniProt P51582); assay: as above; format: cell-based; details: mean ± SEM
Sequence of hP2Y4 Receptor (P51582 whole entry): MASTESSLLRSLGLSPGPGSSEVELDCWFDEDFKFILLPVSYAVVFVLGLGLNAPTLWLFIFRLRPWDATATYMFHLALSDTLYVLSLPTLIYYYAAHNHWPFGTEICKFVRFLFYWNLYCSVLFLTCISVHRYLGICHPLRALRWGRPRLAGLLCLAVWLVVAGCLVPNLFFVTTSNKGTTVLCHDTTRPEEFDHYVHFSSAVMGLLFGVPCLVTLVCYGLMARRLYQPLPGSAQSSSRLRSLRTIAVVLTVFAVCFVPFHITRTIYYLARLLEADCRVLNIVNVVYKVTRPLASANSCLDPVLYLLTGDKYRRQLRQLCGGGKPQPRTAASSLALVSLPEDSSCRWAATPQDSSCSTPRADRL
Method: as §3, §2

mouse P2Y2 receptor = mouse P2Y2 receptor (Mus musculus, UniProt P35383); assay: Inhibition of agonist-induced calcium mobilization in NG108-15 cells; format: cell-based; details: mean ± SEM, read-out: mP2Y2 Receptor IC50 (μM ± SEM)
Sequence of mouse P2Y2 receptor (P35383 whole entry): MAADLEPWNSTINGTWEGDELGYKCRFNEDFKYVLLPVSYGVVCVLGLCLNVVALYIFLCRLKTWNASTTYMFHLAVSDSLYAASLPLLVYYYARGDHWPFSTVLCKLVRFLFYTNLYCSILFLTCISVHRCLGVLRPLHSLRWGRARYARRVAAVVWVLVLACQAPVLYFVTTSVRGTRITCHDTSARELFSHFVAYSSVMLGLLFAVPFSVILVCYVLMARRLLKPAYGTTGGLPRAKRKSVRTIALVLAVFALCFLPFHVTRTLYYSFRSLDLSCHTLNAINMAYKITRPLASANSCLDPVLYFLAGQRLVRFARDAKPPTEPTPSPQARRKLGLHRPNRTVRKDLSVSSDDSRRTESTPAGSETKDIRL
Method: as §3, §2

hP2Y2 Receptor = target: T3, hP2Y2 Receptor (Homo sapiens, UniProt P41231); assay: Inhibition of agonist-induced calcium mobilization, recombinant receptor in human astrocytoma cells; format: cell-based; details: mean ± SEM
T3 construct: expressed in transfected cells; host or cells: human astrocytoma cells
T3 sequence (P41231 whole entry): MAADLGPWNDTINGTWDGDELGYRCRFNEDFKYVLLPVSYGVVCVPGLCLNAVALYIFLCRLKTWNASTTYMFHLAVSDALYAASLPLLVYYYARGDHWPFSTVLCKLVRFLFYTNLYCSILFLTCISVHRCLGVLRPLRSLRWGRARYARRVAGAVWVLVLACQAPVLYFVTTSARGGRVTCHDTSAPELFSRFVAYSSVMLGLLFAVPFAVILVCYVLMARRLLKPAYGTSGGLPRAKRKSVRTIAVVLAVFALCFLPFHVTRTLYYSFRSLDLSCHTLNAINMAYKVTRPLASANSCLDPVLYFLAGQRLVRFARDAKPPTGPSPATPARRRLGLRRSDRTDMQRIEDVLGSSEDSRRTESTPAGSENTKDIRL
Method: as §3, §2

P2Y12 [3] = target: T1, P2Y12; details: recent review article (Abbracchio et al. 2006); read-out: Ki value as P2Y12 antagonist; cited from earlier work
Target sequence in this assay (Q9H244 whole entry, species assumed): as the sequence (Q9H244 whole entry) above

SMILES | right-shift of the concentration-inhibition curve in GTP shift experiments (P2Y12 [1]) | Ki [2] [µM] | IC50 (rP2Y6 Receptor) [µM] | IC50 (hP2Y4 Receptor) [µM] | IC50 (mouse P2Y2 receptor) [µM] | IC50 (hP2Y2 Receptor) [µM] | Ki (P2Y12 [3]) [µM]
Nc1ncnc2c1ncn2[C@@H]1O[C@H](COP(=O)(O)OP(=O)(O)O)[C@@H](O)[C@H]1O [ADP, reference compound] | significant right-shift |  |  |  |  |  | 
Nc1c(S(=O)(=O)O)cc(Nc2ccc(Nc3ccccc3)cc2)c2c1C(=O)c1ccccc1C2=O [Entry 18] |  | 1.85 ± 0.57 | > 1 | > 3 | 30 ± 7 |  | 
Nc1c(S(=O)(=O)O)cc(Nc2ccc(Cl)cc2)c2c1C(=O)c1ccccc1C2=O [Entry 15] |  | 7.35 ± 1.72 | > 10 | > 3 | 20 ± 7 | 4.46 ± 0.75 | 
Nc1c(S(=O)(=O)O)cc(Nc2ccccc2)c2c1C(=O)c1ccccc1C2=O [Entry 17] |  | 9.83 ± 2.43 |  |  | 11.1 ± 3 | 5.61 ± 0.47 | 
COc1nc(Cl)nc(Nc2ccc(Nc3cc(S(=O)(=O)[O-])c(N)c4c3C(=O)c3ccccc3C4=O)cc2S(=O)(=O)[O-])n1.[Na+].[Na+] [Entry 37] | did not | 0.66 ± 0.12 |  |  |  |  | 
Nc1c(S(=O)(=O)O)cc(Nc2ccc(Nc3nc(Cl)nc(Nc4cccc(S(=O)(=O)O)c4)n3)c(S(=O)(=O)O)c2)c2c1C(=O)c1ccccc1C2=O [Reactive Blue 2, reference compound] | did not |  |  |  |  |  | 1.3
Nc1c(S(=O)(=O)[O-])cc(Nc2ccc(Nc3ncccn3)c(S(=O)(=O)[O-])c2)c2c1C(=O)c1ccccc1C2=O.[Na+].[Na+] [Entry 33] | did not | 0.0507 ± 0.016 | 28.6 ± 2.7 | 9.04 ± 1.2 |  |  | 
Nc1c(S(=O)(=O)O)cc(Nc2cccc3ccccc23)c2c1C(=O)c1ccccc1C2=O [Entry 25] |  |  | 26.7 | 10.1 ± 1.4 | 10.7 ± 1 | 6.67 ± 0.32 | 

From patent publication US20100210654A1, “NOVEL P2Y12 RECEPTOR ANTAGONISTS” (RHEINISCHE FRIEDRICH-WILHELMS UNIVERSITÄT BONN, priority 2007, published 2010)
